Patent publication US9499550B2 (BRISTOL-MYERS SQUIBB COMPANY, priority 2012, dated 2016)
Like-named read-outs stand apart in the source and are kept apart here.

Experiments:
[1] = system: HCV genotype 1a (H77 strain) replicon in HUH-7 cells; assay: HCV replicon luciferase reporter assay, genotype 1a; format: cell-based; details: Hepatitis C virus, Huh-7, 72 h, 3 days incubation
How it was run: (§1)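 Replicon inhibition for both genotypes was measured as Renilla luciferase signal (EnduRen, 7.5 μM final, 2 h) after 3-day, 37° C exposure of replicon-bearing HUH-7 cells in 4% FCS DMEM, 0.5% DMSO. The 1b construct carries S1179I; the 1a H77 construct carries P1496L and S2204I. Twenty-point, 3-fold dilutions were fitted four-parametrically for EC50, and CC50 was taken from multiplexed Cell Titer-Blue.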

[2] = system: HCV genotype 1b (Con1) replicon in HUH-7 cells; assay: HCV replicon luciferase reporter assay, genotype 1b; format: cell-based; details: Hepatitis C virus, Huh-7, 72 h, 3 days incubation
How it was run: as §1

[3] = GETYPE1A, HCV genotype 1a replicon luciferase, read-out: LE_1a (EC50, range)
[4] = GETYPE1B, HCV genotype 1b replicon luciferase, read-out: LE_1b (EC50, range)
[5] = HCV genotype 1a replicon luciferase, read-out: LE_1a (EC50, range)
[6] = HCV genotype 1b replicon luciferase, read-out: LE_1b (EC50, range)
[7] = HCV genotype 1a replicon luciferase assay, range class, read-out: LE_1a (EC50, range)
[8] = HCV genotype 1b replicon luciferase assay, range class, read-out: LE_1b (EC50, range)

| Compound | EC50 [1, 5] | EC50 [2, 6] | other results |
| --- | --- | --- | --- |
| C[C@@H]1CC/C=C\[C@@H]2C[C@@]2(C(=O)NS(=O)(=O)C2(C)CC2)NC(=O)[C@@H]2C[C@@H](Oc3cnc4cc(F)ccc4n3)CN2C(=O)[C@@H](NC(=O)OC(C)(C)C(F)(F)F)[C@H](C)C1 [Compound 4099] |  |  | EC50 [1, 3]: < 5.46 nM; EC50 [2, 4]: < 5.46 nM |
| [2H]C([2H])([2H])C(OC(=O)N[C@@H]1C(=O)N2C[C@H](Oc3nccc4c5c(ccc34)N(C)CCO5)C[C@H]2C(=O)N[C@]2(C(=O)NS(=O)(=O)C3CC3)C[C@H]2/C=C\CC[C@@H](C)C[C@H]1CC)(C([2H])([2H])[2H])C(F)(F)F [Compound 5312, 1,1,1,3,3,3-hexadeutero-2-(trifluoromethyl)propan-2-yl((2R,6S,7R,9R,13aS,14aR,16aS,Z)-14a-((cyclopropylsulfonyl)carbamoyl)-7-ethyl-9-methyl-2-((4-methyl-3,4-dihydro-2H-[1,4]oxazino[2,3-f]isoquinolin-7-yl)oxy)-5,16-dioxo-1,2,3,5,6,7,8,9,10,11,13a,14,14a,15,16,16a-hexadecahydrocyclopropa[e]pyrrolo[1,2-a][1,4]diazacyclopentadecin-6-yl)carbamate] | < 5.46 nM | < 5.46 nM |  |
| COc1ccc2c(O[C@@H]3C[C@H]4C(=O)N[C@]5(C(=O)NS(=O)(=O)C6CC6)C[C@H]5/C=C\CC[C@@H](C)C[C@@H](C)[C@H](NC(=O)OC(C)(C)C(F)(F)F)C(=O)N4C3)nc(-c3ccc(OC(C)C)cc3)nc2c1 [Compound 3022, 1,1,1-trifluoro-2-methylpropan-2-yl((2R,6S,7R,9R,13aS,14aR,16aS,Z)-14a-((cyclopropylsulfonyl)carbamoyl)-2-((2-(4-isopropoxyphenyl)-7-methoxyquinazolin-4-yl)oxy)-7,9-dimethyl-5,16-dioxo-1,2,3,5,6,7,8,9,10,11,13a,14,14a,15,16,16a-hexadecahydrocyclopropa[e]pyrrolo[1,2-a][1,4]diazacyclopentadecin-6-yl)carbamate] |  |  | EC50 [1, 7]: < 5.46 nM; EC50 [2, 8]: < 5.46 nM |
| CC[C@@H]1C[C@H](C)CC/C=C\[C@@H]2C[C@@]2(C(=O)NS(=O)(=O)C2(C)CC2)NC(=O)[C@@H]2C[C@@H](Oc3ncc(OC)c4cc(OC)ccc34)CN2C(=O)[C@H]1NC(=O)OC(C)(C)C(F)(F)F [Compound 4197] |  |  | EC50 [1, 3]: < 5.46 nM; EC50 [2, 4]: < 5.46 nM |
| COc1nnc(O[C@@H]2C[C@H]3C(=O)N[C@]4(C(=O)NS(=O)(=O)C5(C)CC5)C[C@H]4/C=C\CC[C@@H](C)C[C@@H](C)[C@H](NC(=O)OC(C)(C)C(F)(F)F)C(=O)N3C2)c2ccccc12 [Compound 5008, 1,1,1-trifluoro-2-methylpropan-2-yl((2R,6S,7R,9R,13aS,14aR,16aS,Z)-2-((4-methoxyphthalazin-1-yl)oxy)-7,9-dimethyl-14a-(((1-methylcyclopropyl)sulfonyl)carbamoyl)-5,16-dioxo-1,2,3,5,6,7,8,9,10,11,13a,14,14a,15,16,16a-hexadecahydrocyclopropa[e]pyrrolo[1,2-a][1,4]diazacyclopentadecin-6-yl)carbamate] | < 5.46 nM | < 5.46 nM |  |
| CC[C@@H]1C[C@H](C)CC/C=C\[C@@H]2C[C@@]2(C(=O)NS(=O)(=O)C2(C)CC2)NC(=O)[C@@H]2C[C@@H](Oc3nc(OC)cc4cc(F)ccc34)CN2C(=O)[C@H]1NC(=O)OC(C)(C)C [Compound 3212, tert-butyl ((2R,6S,7R,9R,13aS,14aR,16aS,Z)-7-ethyl-2-((6-fluoro-3-methoxyisoquinolin-1-yl)oxy)-9-methyl-14a-(((1-methylcyclopropyl)sulfonyl)carbamoyl)-5,16-dioxo-1,2,3,5,6,7,8,9,10,11,13a,14,14a,15,16,16a-hexadecahydrocyclopropa[e]pyrrolo[1,2-a][1,4]diazacyclopentadecin-6-yl)carbamate] | 0.51 to 1 nM | 0.1 to 0.5 nM |  |
| CC[C@@H]1C[C@H](C)CC/C=C\[C@@H]2C[C@@]2(C(=O)NS(=O)(=O)C2(C)CC2)NC(=O)[C@@H]2C[C@@H](Oc3nccc4cc(OC)c(F)cc34)CN2C(=O)[C@H]1NC(=O)N1CCN(C)CC1 [Compound 4335, (2R,6S,7R,9R,13aS,14aR,16aS,Z)-7-ethyl-2-((7-fluoro-6-methoxyisoquinolin-1-yl)oxy)-9-methyl-N-((1-methylcyclopropyl)sulfonyl)-6-(4-methylpiperazine-1-carboxamido)-5,16-dioxo-1,2,3,5,6,7,8,9,10,11,13a,14,14a,15,16,16a-hexadecahydrocyclopropa[e]pyrrolo[1,2-a][1,4]diazacyclopentadecine-14a-carboxamide] | 5.01 to 35 nM | 5.01 to 35 nM |  |
| CC[C@@H]1C[C@@H](C)CC/C=C\[C@@H]2C[C@@]2(C(=O)NS(=O)(=O)C2CC2)NC(=O)[C@@H]2C[C@@H](Oc3nccc4c(OC)cccc34)CN2C(=O)[C@H]1NC(=O)OC(C)(C)C [Compound 3025, tert-butyl ((2R,6S,7R,9S,13aS,14aR,16aS,Z)-14a-((cyclopropylsulfonyl)carbamoyl)-7-ethyl-2-((5-methoxyisoquinolin-1-yl)oxy)-9-methyl-5,16-dioxo-1,2,3,5,6,7,8,9,10,11,13a,14,14a,15,16,16a-hexadecahydrocyclopropa[e]pyrrolo[1,2-a][1,4]diazacyclopentadecin-6-yl)carbamate] |  |  | EC50 [1, 7]: 4.82 to 103 nM; EC50 [2, 8]: 4.82 to 103 nM |
| COc1ccc2ncc(O[C@@H]3C[C@H]4C(=O)N[C@]5(C(=O)NS(=O)(=O)C6(C)CC6)C[C@H]5/C=C\CC[C@@H](C)C[C@@H](C)[C@H](NC(=O)OC(C)(C)C)C(=O)N4C3)nc2c1 [Compound 4086, tert-butyl (2R,6S,7R,9R,13aS,14aR,16aS,Z)-2-(7-methoxyquinoxalin-2-yloxy)-7,9-dimethyl-14a-(1-methylcyclopropylsulfonylcarbamoyl)-5,16-dioxo-1,2,3,5,6,7,8,9,10,11,13a,14,14a,15,16,16a-hexadecahydrocyclopropa[e]pyrrolo[1,2-a][1,4]diazacyclopentadecin-6-ylcarbamate] | < 5.46 nM | < 5.46 nM |  |
| CC[C@@H]1C[C@H](C)CC/C=C\[C@@H]2C[C@@]2(C(=O)NS(=O)(=O)C2(C)CC2)NC(=O)[C@@H]2C[C@@H](Oc3nc4c(c5ccccc35)OCCC4)CN2C(=O)C1NC(=O)OC(C)(C)C(F)(F)F (stereo partly drawn) [Compound 6028, 1,1,1-trifluoro-2-methylpropan-2-yl((2R,6S,7R,9R,13aS,14aR,16aS,Z)-2-((3,4-dihydro-2H-pyrano[3,2-c]isoquinolin-6-yl)oxy)-7-ethyl-9-methyl-14a-(((1-methylcyclopropyl)sulfonyl)carbamoyl)-5,16-dioxo-1,2,3,5,6,7,8,9,10,11,13a,14,14a,15,16,16a-hexadecahydrocyclopropa[e]pyrrolo[1,2-a][1,4]diazacyclopentadecin-6-yl)carbamate] | < 5.46 nM | < 5.46 nM |  |
| CCCOc1cc2c(Cl)cccc2c(O[C@@H]2C[C@H]3C(=O)N[C@]4(C(=O)NS(=O)(=O)C5CC5)C[C@H]4/C=C\CC[C@@H](C)C[C@@H](C)[C@H](NC(=O)OC(C)(C)C)C(=O)N3C2)n1 [Compound 1070, tert-butyl ((2R,6S,7R,9R,13aS,14aR,16aS,Z)-2-((5-chloro-3-propoxyisoquinolin-1-yl)oxy)-14a-((cyclopropylsulfonyl)carbamoyl)-7,9-dimethyl-5,16-dioxo-1,2,3,5,6,7,8,9,10,11,13a,14,14a,15,16,16a-hexadecahydrocyclopropa[e]pyrrolo[1,2-a][1,4]diazacyclopentadecin-6-yl)carbamate] |  |  | EC50 [1, 7]: < 5.46 nM; EC50 [2, 8]: < 5.46 nM |
| C[C@@H]1CC/C=C\[C@@H]2C[C@@]2(C(=O)NS(=O)(=O)C2CC2)NC(=O)[C@@H]2C[C@@H](Oc3nccc4c5c(ccc34)N(C)CCO5)CN2C(=O)[C@@H](NC(=O)NC(C)(C)C)[C@H](C)C1 [Compound 5284, (2R,6S,7R,9R,13aS,14aR,16aS,Z)-6-(3-(tert-butyl)ureido)-N-(cyclopropylsulfonyl)-7,9-dimethyl-2-((4-methyl-3,4-dihydro-2H-[1,4]oxazino[2,3-f]isoquinolin-7-yl)oxy)-5,16-dioxo-1,2,3,5,6,7,8,9,10,11,13a,14,14a,15,16,16a-hexadecahydrocyclopropa[e]pyrrolo[1,2-a][1,4]diazacyclopentadecine-14a-carboxamide] | < 5.46 nM | < 5.46 nM |  |
| CCCOc1cnc(O[C@@H]2C[C@H]3C(=O)N[C@]4(C(=O)NS(=O)(=O)C5(C)CC5)C[C@H]4/C=C\CC[C@H](C)C[C@@H](C)[C@H](NC(=O)OC(C)(C)C)C(=O)N3C2)c2ccccc12 [Compound 5078, tert-butyl ((2R,6S,7R,9S,13aS,14aR,16aS,Z)-7,9-dimethyl-14a-(((1-methylcyclopropyl)sulfonyl)carbamoyl)-5,16-dioxo-2-((4-propoxyisoquinolin-1-yl)oxy)-1,2,3,5,6,7,8,9,10,11,13a,14,14a,15,16,16a-hexadecahydrocyclopropa[e]pyrrolo[1,2-a][1,4]diazacyclopentadecin-6-yl)carbamate] | 4.82 to 103 nM | 4.82 to 103 nM | EC50 ([1]; HCV genotype 1a replicon luciferase, read-out: LE_1a (EC50)): 28.9 nM; EC50 ([2]; HCV genotype 1b replicon luciferase, read-out: LE_1b (EC50)): 8.73 nM |
| CC[C@@H]1C[C@H](C)CC/C=C\[C@@H]2C[C@@]2(C(=O)NS(=O)(=O)C2(C)CC2)NC(=O)[C@@H]2C[C@@H](Oc3cc(OC)nc4cc(OC)c(F)cc34)CN2C(=O)[C@H]1NC(=O)OC(C)(C)C(C)(F)F [Compound 1200] |  |  | EC50 [1, 3]: 1.01 to 5 nM; EC50 [2, 4]: 1.01 to 5 nM |
